Series [1] relates to HeLa. As to the kind of experiment: Antiproliferative activity against human HeLa cells after 72 hrs by MTT assay. The class given is functional, cell-based.
Series [2] concerns MCF7. Nature of the series: Growth inhibition of human MCF7 cells at 30 uM after 72 hrs by MTT assay relative to control. The settings on record: MCF7, 72 h, read-out: GI. The class given is functional.
In series [3] the test system is A2780. Nature of the series: Antiproliferative activity against human A2780 cells after 72 hrs by MTT assay. It counts as functional, cell-based. Particulars: A2780, 72 h. (Tetrazolium assays rely on reduction of a dye to a coloured formazan, in cell work by metabolically active cells.)
The test system of series [4] is MCF7. Nature of the series: Antiproliferative activity against human MCF7 cells after 72 hrs by MTT assay. It counts as functional, cell-based. The settings on record: MCF7, 72 h.
Series [5] relates to HeLa. Nature of the series: Growth inhibition of human HeLa cells at 30 uM after 72 hrs by MTT assay relative to control. It counts as functional. The settings on record: read-out: GI.
Series [6] can be described thus: Growth inhibition of mouse NIH/3T3 cells at 30 uM after 72 hrs by MTT assay relative to control. It counts as cell-based, NIH3T3. Particulars: read-out: GI.
For series [7], the system named is A2780. Nature of the series: Growth inhibition of human A2780 cells at 10 uM after 72 hrs by MTT assay relative to control. The class given is functional. Particulars: A2780, 72 h, read-out: GI.
Series [8] relates to A2780. As to the kind of experiment: Growth inhibition of human A2780 cells at 30 uM after 72 hrs by MTT assay relative to control. The class given is functional. Particulars: A2780, 72 h, read-out: GI.
The subject of series [9] is HeLa. As to the kind of experiment: Growth inhibition of human HeLa cells at 10 uM after 72 hrs by MTT assay relative to control. It counts as functional. The settings on record: read-out: GI.
Series [10] deals with MCF7. As to the kind of experiment: Growth inhibition of human MCF7 cells at 10 uM after 72 hrs by MTT assay relative to control. The class given is functional. Particulars: MCF7, 72 h, read-out: GI.
Series [11] is described as follows: Growth inhibition of mouse NIH/3T3 cells at 10 uM after 72 hrs by MTT assay relative to control. It counts as cell-based, NIH3T3. The settings on record: read-out: GI.

14 compounds from ChEMBL document CHEMBL4014294, “Synthesis and in vitro investigation of potential antiproliferative monosaccharide-d-secoestrone bioconjugates” (Bioorg Med Chem Lett, 2017) can be followed below.

Usually IC50 stands for the midpoint of a concentration-inhibition curve. Low readings indicate inhibition by little substance, high ones a need for much substance. `CCC[C@H]1[C@@H]2CCc3cc(OCc4cn([C@@H]5O[C@H](COC(C)=O)[C@@H](OC(C)=O)[C@H](OC(C)=O)[C@H]5OC(C)=O)nn4)ccc3[C@H]2CC[C@]1(C)/C=N/O`: the results for the IC50 in series [1], in series [3] and in series [4] were over 30 µM, 5.3 µM and 10.7 µM, respectively. Moreover, the inhibition of growth at 30 µM was 67.7% in series [2], 40% in series [5] and 76.7% in [8]. Moreover, the inhibition at 72 h, 30 µM in series [6] was determined as 28.4%. The inhibition of growth at 10 µM in [7] amounted to 69.5%; in [9], 20.4%; in series [10], 46.7%. Further, the inhibition at 72 h, 10 µM in series [11] was under 20%.
For the compound `CCC[C@H]1[C@@H]2CCc3cc(OCc4cn([C@H]5O[C@H](COC(C)=O)[C@@H](OC(C)=O)[C@H](OC(C)=O)[C@@H]5OC(C)=O)nn4)ccc3[C@H]2CC[C@]1(C)/C=N/O`, the concentration for half-maximal inhibition (IC50) worked out at 8.9 µM in [1], 6.6 µM in [3] and 9.4 µM in series [4]. For the same compound, the inhibition of growth at 30 µM stood at 65.9% in [2], 89.6% in series [5] and 86.4% in series [8]. The inhibition at 72 h, 30 µM in series [6] was determined as 34.8%. For the same compound, the inhibition of growth at 10 µM in series [7] came to 69.5%; in series [9], 52.4%; in series [10] it was 53.9%. Besides, in [11], the inhibition at 72 h, 10 µM was 27.3%.
Take `CCC[C@H]1[C@@H]2CCc3cc(OCc4cn(C[C@H]5O[C@H](OC)[C@H](OC(=O)c6ccccc6)[C@@H](OC(=O)c6ccccc6)[C@@H]5OC(=O)c5ccccc5)nn4)ccc3[C@H]2CC[C@]1(C)CO`: the inhibition of growth at 30 µM in [2], in [5] and in series [8] was under 20% throughout. Moreover, the inhibition of growth at 10 µM in series [7], in [9] and in [10] was under 20% in each case.
For the compound `CCC[C@H]1[C@@H]2CCc3cc(OCc4cn([C@@H]5O[C@H](COC(C)=O)[C@H](OC(C)=O)[C@H](OC(C)=O)[C@H]5OC(C)=O)nn4)ccc3[C@H]2CC[C@]1(C)/C=N/O`, the figures for the IC50 in series [1], in [3] and in series [4] were 20.5 µM, 8.8 µM and 8 µM, respectively. Besides, the figures for the inhibition of growth at 30 µM in series [2], in series [5] and in [8] were 71.5%, 61.9% and 85.2%, respectively. Besides, in [6], the inhibition at 72 h, 30 µM is 25.5%. In addition, the inhibition of growth at 10 µM came out at 59.3% in [7], 31.5% in series [9] and 59.1% in [10]. Moreover, the inhibition at 72 h, 10 µM in series [11] is under 20%.
With `CCC[C@H]1[C@@H]2CCc3cc(OCc4cn([C@@H]5O[C@H](CO)[C@@H](O)[C@H](O)[C@H]5O)nn4)ccc3[C@H]2CC[C@]1(C)CO`, the inhibition of growth at 30 µM in series [2], in [5] and in series [8] was under 20% in each case. For the same compound, the inhibition of growth at 10 µM in series [7], in [9] and in series [10] was under 20% throughout.
With `CCC[C@H]1[C@@H]2CCc3cc(OCc4cn(C[C@H]5O[C@H](OC)[C@@H](OC(=O)c6ccccc6)[C@@H](OC(=O)c6ccccc6)[C@@H]5OC(=O)c5ccccc5)nn4)ccc3[C@H]2CC[C@]1(C)CO`, the inhibition of growth at 30 µM in [2], in series [5] and in series [8] was under 20% throughout. In addition, the inhibition of growth at 10 µM in series [7], in [9] and in [10] was under 20% in each case.
For `CCC[C@H]1[C@@H]2CCc3cc(OCc4cn(C[C@H]5O[C@@H](OC)[C@H](OC(=O)c6ccccc6)[C@@H]5OC(=O)c5ccccc5)nn4)ccc3[C@H]2CC[C@]1(C)/C=N/O`, the inhibition of growth at 30 µM in series [2], in series [5] and in series [8] was under 20% in each case. Moreover, the inhibition of growth at 10 µM in series [7] is under 20%; in series [9] it was 24.3%; in series [10], under 20%.
Regarding `CCC[C@H]1[C@@H]2CCc3cc(OCc4cn([C@H]5O[C@H](COC(C)=O)[C@@H](OC(C)=O)[C@H](OC(C)=O)[C@@H]5OC(C)=O)nn4)ccc3[C@H]2CC[C@]1(C)CO`, the inhibition of growth at 30 µM in [2] worked out at 54.3%; in series [5], 41.5%; in series [8], 36.5%. The inhibition of growth at 10 µM in series [7] is 34.9%; in series [9], 51.9%; in series [10], 26.3%.
Take `CCC[C@H]1[C@@H]2CCc3cc(OCc4cn([C@@H]5O[C@H](COC(C)=O)[C@@H](OC(C)=O)[C@H](OC(C)=O)[C@H]5OC(C)=O)nn4)ccc3[C@H]2CC[C@]1(C)CO`: the inhibition of growth at 30 µM came to 45.5% in series [2], 23.9% in [5] and 19.5% in [8]. The inhibition of growth at 10 µM in [7] was determined as 21%; in [9], 34.5%; in [10], 27.4%.
For `CCC[C@H]1[C@@H]2CCc3cc(OCc4cn([C@@H]5O[C@H](COC(C)=O)[C@H](OC(C)=O)[C@H](OC(C)=O)[C@H]5OC(C)=O)nn4)ccc3[C@H]2CC[C@]1(C)CO`, the inhibition of growth at 30 µM was determined as 61.9% in series [2], 31.8% in series [5] and 32.7% in series [8]. In addition, the results for the inhibition of growth at 10 µM in series [7], in series [9] and in series [10] were under 20%, 23.9% and under 20%, respectively.
As to `CCC[C@H]1[C@@H]2CCc3cc(OCc4cn(C[C@H]5O[C@H](OC)[C@H](OC(=O)c6ccccc6)[C@@H](OC(=O)c6ccccc6)[C@@H]5OC(=O)c5ccccc5)nn4)ccc3[C@H]2CC[C@]1(C)/C=N/O`, the inhibition of growth at 30 µM was under 20% in series [2], under 20% in series [5] and 45.7% in series [8]. The inhibition of growth at 10 µM in [7] was 28.4%; in series [9], under 20%; in series [10] it was under 20%.
As for `CCC[C@H]1[C@@H]2CCc3cc(OCc4cn([C@@H]5O[C@H](CO)[C@@H](O)[C@H](O)[C@H]5O)nn4)ccc3[C@H]2CC[C@]1(C)/C=N/O`, the IC50 is over 30 µM in series [1], 27.4 µM in [3] and over 30 µM in [4]. Besides, the inhibition of growth at 30 µM was under 20% in series [2], 31.5% in series [5] and 57.9% in series [8]. Also, the inhibition of growth at 10 µM in series [7], in series [9] and in series [10] was under 20% each time.
Consider `CCC[C@H]1[C@@H]2CCc3cc(OCc4cn(C[C@H]5O[C@@H](OC)[C@H](OC(=O)c6ccccc6)[C@@H]5OC(=O)c5ccccc5)nn4)ccc3[C@H]2CC[C@]1(C)CO`, for which the inhibition of growth at 30 µM in series [2], in series [5] and in [8] was under 20% each time. The inhibition of growth at 10 µM in [7], in [9] and in series [10] was under 20% in each case.
For `CCC[C@H]1[C@@H]2CCc3cc(OCc4cn(C[C@H]5O[C@H](OC)[C@@H](OC(=O)c6ccccc6)[C@@H](OC(=O)c6ccccc6)[C@@H]5OC(=O)c5ccccc5)nn4)ccc3[C@H]2CC[C@]1(C)/C=N/O`, the inhibition of growth at 30 µM in [2], in series [5] and in [8] was under 20% each time. The inhibition of growth at 10 µM in series [7], in series [9] and in series [10] was under 20% in each case.
